From patent US20260070945A1, “MACROCYCLIC IMMUNOMODULATORS” (Bristol-Myers Squibb Company, priority 2022, published 2026) come the findings set out here.

The IC50 is the concentration that inhibits the measured activity by half.

Where a SMILES comes first, the peptide text is derived from it. Bridges are numbered along the chain shown (N, C = ends). [ ]: non-standard residue; d: D form. The star is where a group is joined. ξ: configuration not given here. Phe(3-CF3) = N[C@@H](Cc1cccc(C(F)(F)F)c1)C(=O)O; Phe(4-CF3) = N[C@@H](Cc1ccc(C(F)(F)F)cc1)C(=O)O; Phe(4-COOH) = N[C@@H](Cc1ccc(C(=O)O)cc1)C(=O)O; Bip = N[C@@H](Cc1ccc(-c2ccccc2)cc1)C(=O)O; Phe(3-Me) = Cc1cccc(C[C@H](N)C(=O)O)c1; NH(CH2)12COOH = O=C(O)CCCCCCCCCCCCN*; Val(3-OH) = CC(C)(O)[C@H](N)C(=O)O; Cha = N[C@@H](CC1CCCCC1)C(=O)O; Cit = NC(=O)NCCC[C@H](N)C(=O)O; Thr(3ξ) = CC(O)[C@H](N)C(=O)O; Carboxymethyl = O=C(O)C*; NMeA = CN[C@@H](C)C(=O)O; Aun = NCCCCCCCCCCC(=O)O; Dab = NCC[C@H](N)C(=O)O; Abu = CC[C@H](N)C(=O)O

In the test the target is T1, PD-1/PD-L1 interaction (PE-labeled human PD-L1-Ig binding to Jurkat cell line over-expressing human PD-1) (Homo sapiens, UniProt Q15116).
T1 construct: expressed in transfected cells; host or cells: Jurkat
T1 sequence (Q15116 25-288): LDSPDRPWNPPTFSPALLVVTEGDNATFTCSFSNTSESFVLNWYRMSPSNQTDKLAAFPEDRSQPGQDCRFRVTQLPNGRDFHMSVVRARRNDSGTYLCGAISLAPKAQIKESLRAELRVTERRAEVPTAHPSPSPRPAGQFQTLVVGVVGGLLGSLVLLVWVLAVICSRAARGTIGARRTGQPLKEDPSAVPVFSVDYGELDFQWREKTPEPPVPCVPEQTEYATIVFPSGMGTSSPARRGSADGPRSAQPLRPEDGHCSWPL
Nature of the test: Jurkat-PD-1 Cell Binding High-Content Screening Assay (CBA). Particulars: PE-labeled PD-L1-Ig 20 nM final, Jurkat-hPD-1 cells; read-out: Jurkat HPD1 PDL1 IC50. The procedure, abridged: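 In this imaging assay, cells in 10% FCS medium see compound for 2 h at 37 °C and then labeled ligand at 20 nM final for 1 h. Paraformaldehyde fixation, Hoechst 33342 staining and dPBS washes precede image capture.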
Turning to `CC(=O)NCCCC[C@@H]1NC(=O)[C@H](C(C)(C)O)NC(=O)[C@H](CC2CCCCC2)NC(=O)[C@H](CCN)NC(=O)[C@@H](CC(C)C)NC(=O)[C@H](C)N(C)C(=O)[C@H](CCC(N)=O)NC(=O)[C@H](Cc2ccc(-c3ccccc3)cc2)NC(=O)[C@H](Cc2ccc(C(=O)O)cc2)NC(=O)[C@H](Cc2cccc(C)c2)NC(=O)[C@H](CC(=O)O)NC(=O)[C@H](Cc2ccc(OCC(=O)O)cc2)NC(=O)[C@H](Cc2ccc(OCC(=O)O)cc2)NC(=O)CSC[C@@H](C(=O)N[C@@H](CCN)C(=O)NCCCCCCCCCCCCC(=O)O)NC1=O` [Example 2563] ({CH2CO}-Y(Carboxymethyl)Y(Carboxymethyl)D[Phe(3-Me)][Phe(4-COOH)][Bip]Q[NMeA][dL][Dab][Cha][Val(3-OH)]K(Ac)C[Dab]-{NH(CH2)12COOH}; thioether N-14), the IC50 turned out to be 4.6 nM.
The value for `CC(=O)NCCCC[C@@H]1NC(=O)[C@H](C(C)(C)O)NC(=O)[C@H](CC2CCCCC2)NC(=O)[C@H](CCN)NC(=O)[C@@H](CC(C)C)NC(=O)[C@H](C)N(C)C(=O)[C@H](CCC(N)=O)NC(=O)[C@H](Cc2ccc(-c3ccccc3)cc2)NC(=O)[C@H](Cc2ccc(C(=O)O)cc2)NC(=O)[C@H](Cc2cccc(C(F)(F)F)c2)NC(=O)[C@H](CC(=O)O)NC(=O)[C@H](Cc2ccc(OCC(=O)O)cc2)NC(=O)[C@H](Cc2ccc(OCC(=O)O)cc2)NC(=O)CSC[C@@H](C(=O)N[C@@H](CCN)C(=O)NCCCCCCCCCCC(=O)O)NC1=O` [Example 2564] ({CH2CO}-Y(Carboxymethyl)Y(Carboxymethyl)D[Phe(3-CF3)][Phe(4-COOH)][Bip]Q[NMeA][dL][Dab][Cha][Val(3-OH)]K(Ac)C[Dab][Aun]-OH; thioether N-14) was 1.1 nM; that for `CC(=O)NCCCC[C@@H]1NC(=O)[C@H](C(C)(C)O)NC(=O)[C@H](CC2CCCCC2)NC(=O)[C@H](CCN)NC(=O)[C@@H](CC(C)C)NC(=O)[C@H](C)N(C)C(=O)[C@H](CCC(N)=O)NC(=O)[C@H](Cc2ccc(-c3ccccc3)cc2)NC(=O)[C@H](Cc2ccc(C(=O)O)cc2)NC(=O)[C@H](Cc2cccc(C(F)(F)F)c2)NC(=O)[C@H](CC(=O)O)NC(=O)[C@H](Cc2ccc(OCC(=O)O)cc2)NC(=O)[C@H](Cc2ccc(OCC(=O)O)cc2)NC(=O)CSC[C@@H](C(=O)N[C@@H](CCN)C(=O)NCCCCCCCCCCCCC(=O)O)NC1=O` [Example 2565] ({CH2CO}-Y(Carboxymethyl)Y(Carboxymethyl)D[Phe(3-CF3)][Phe(4-COOH)][Bip]Q[NMeA][dL][Dab][Cha][Val(3-OH)]K(Ac)C[Dab]-{NH(CH2)12COOH}; thioether N-14) was 3.3 nM; that for `CC(C)C[C@H]1NC(=O)[C@H](C)N(C)C(=O)[C@H](Cc2ccc(C(=O)O)cc2)NC(=O)[C@H](Cc2ccc(-c3ccccc3)cc2)NC(=O)[C@H](Cc2ccc(C(=O)O)cc2)NC(=O)[C@H](Cc2cccc(C(F)(F)F)c2)NC(=O)[C@H](CC(=O)O)NC(=O)[C@H](Cc2ccc(C(=O)O)cc2)NC(=O)[C@H](C(C)O)NC(=O)CSC[C@@H](C(=O)N[C@@H](CCN)C(=O)NCCCCCCCCCCC(=O)O)NC(=O)[C@H](C(C)O)NC(=O)[C@H](C(C)C)NC(=O)[C@H](CC2CCCCC2)NC(=O)[C@H](CCN)NC1=O` (stereo partly drawn) [Example 2566] ({CH2CO}-[Thr(3ξ)][Phe(4-COOH)]D[Phe(3-CF3)][Phe(4-COOH)][Bip][Phe(4-COOH)][NMeA][dL][Dab][Cha]V[Thr(3ξ)]C[Dab][Aun]-OH; thioether N-14) was 4.5 nM.
To `CC(C)C[C@H]1NC(=O)[C@H](C)N(C)C(=O)[C@H](Cc2ccc(C(=O)O)cc2)NC(=O)[C@H](Cc2ccc(-c3ccccc3)cc2)NC(=O)[C@H](Cc2ccc(C(=O)O)cc2)NC(=O)[C@H](Cc2cccc(C(F)(F)F)c2)NC(=O)[C@H](CC(=O)O)NC(=O)[C@H](Cc2ccc(C(=O)O)cc2)NC(=O)[C@H](C(C)O)NC(=O)CSC[C@@H](C(=O)N[C@@H](CCN)C(=O)NCCCCCCCCCCC(=O)O)NC(=O)[C@H](CO)NC(=O)[C@H](C(C)(C)O)NC(=O)[C@H](CC2CCCCC2)NC(=O)[C@H](CCN)NC1=O` (stereo partly drawn) [Example 2567] ({CH2CO}-[Thr(3ξ)][Phe(4-COOH)]D[Phe(3-CF3)][Phe(4-COOH)][Bip][Phe(4-COOH)][NMeA][dL][Dab][Cha][Val(3-OH)]SC[Dab][Aun]-OH; thioether N-14) belongs 2.2 nM; to `CC(C)C[C@H]1NC(=O)[C@H](C)N(C)C(=O)[C@H](Cc2ccc(C(=O)O)cc2)NC(=O)[C@H](Cc2ccc(-c3ccccc3)cc2)NC(=O)[C@H](Cc2ccc(C(=O)O)cc2)NC(=O)[C@H](Cc2cccc(C(F)(F)F)c2)NC(=O)[C@H](CC(=O)O)NC(=O)[C@H](Cc2ccc(C(=O)O)cc2)NC(=O)[C@H](C(C)O)NC(=O)CSC[C@@H](C(=O)N[C@@H](CCN)C(=O)NCCCCCCCCCCCCC(=O)O)NC(=O)[C@H](CO)NC(=O)[C@H](C(C)(C)O)NC(=O)[C@H](CC2CCCCC2)NC(=O)[C@H](CCN)NC1=O` (stereo partly drawn) [Example 2568] ({CH2CO}-[Thr(3ξ)][Phe(4-COOH)]D[Phe(3-CF3)][Phe(4-COOH)][Bip][Phe(4-COOH)][NMeA][dL][Dab][Cha][Val(3-OH)]SC[Dab]-{NH(CH2)12COOH}; thioether N-14), 22.8 nM.
On to `CC[C@@H]1NC(=O)CSC[C@@H](C(=O)N[C@@H](CCN)C(=O)NCCCCCCCCCCCCC(=O)O)NC(=O)[C@H](CO)NC(=O)[C@H](C(C)(C)O)NC(=O)[C@H](CC2CCCCC2)NC(=O)[C@H](CCN)NC(=O)[C@@H](CC(C)C)NC(=O)[C@H](C)N(C)C(=O)[C@H](Cc2ccc(C(=O)O)cc2)NC(=O)[C@H](Cc2ccc(-c3ccccc3)cc2)NC(=O)[C@H](Cc2ccc(C(=O)O)cc2)NC(=O)[C@H](Cc2cccc(C(F)(F)F)c2)NC(=O)[C@H](CC(=O)O)NC(=O)[C@H](Cc2ccc(C(=O)O)cc2)NC1=O` [Example 2569] ({CH2CO}-[Abu][Phe(4-COOH)]D[Phe(3-CF3)][Phe(4-COOH)][Bip][Phe(4-COOH)][NMeA][dL][Dab][Cha][Val(3-OH)]SC[Dab]-{NH(CH2)12COOH}; thioether N-14), for which the IC50 amounted to 45.3 nM.
The value for `CC(=O)NCCCC[C@@H]1NC(=O)[C@H](C(C)(C)O)NC(=O)[C@H](CC2CCCCC2)NC(=O)[C@H](CCN)NC(=O)[C@@H](CC(C)C)NC(=O)[C@H](C)N(C)C(=O)[C@H](CCCNC(N)=O)NC(=O)[C@H](Cc2ccc(-c3ccccc3)cc2)NC(=O)[C@H](Cc2ccc(C(=O)O)cc2)NC(=O)[C@H](Cc2cccc(C(F)(F)F)c2)NC(=O)[C@H](CC(=O)O)NC(=O)[C@H](Cc2ccc(OCC(=O)O)cc2)NC(=O)[C@H](Cc2ccc(OCC(=O)O)cc2)NC(=O)CSC[C@@H](C(=O)N[C@@H](CCN)C(=O)NCCCCCCCCCCC(=O)O)NC1=O` [Example 2570] ({CH2CO}-Y(Carboxymethyl)Y(Carboxymethyl)D[Phe(3-CF3)][Phe(4-COOH)][Bip][Cit][NMeA][dL][Dab][Cha][Val(3-OH)]K(Ac)C[Dab][Aun]-OH; thioether N-14) was 2.7 nM; that for `Cc1cccc(C[C@@H]2NC(=O)[C@H](CC(=O)O)NC(=O)[C@H](Cc3ccc(C(F)(F)F)cc3)NC(=O)[C@H](C(C)O)NC(=O)CSC[C@@H](C(=O)N[C@@H](CCN)C(=O)NCCCCCCCCCCC(=O)O)NC(=O)[C@H](C(C)O)NC(=O)[C@H](C(C)C)NC(=O)[C@H](CC3CCCCC3)NC(=O)[C@H](CCN)NC(=O)[C@@H](CC(C)C)NC(=O)[C@H](C)N(C)C(=O)[C@H](Cc3ccc(C(=O)O)cc3)NC(=O)[C@H](Cc3ccc(-c4ccccc4)cc3)NC(=O)[C@H](Cc3ccc(C(=O)O)cc3)NC2=O)c1` (stereo partly drawn) [Example 2571] ({CH2CO}-[Thr(3ξ)][Phe(4-CF3)]D[Phe(3-Me)][Phe(4-COOH)][Bip][Phe(4-COOH)][NMeA][dL][Dab][Cha]V[Thr(3ξ)]C[Dab][Aun]-OH; thioether N-14) was 108 nM; that for `CC(C)C[C@H]1NC(=O)[C@H](C)N(C)C(=O)[C@H](Cc2ccc(C(=O)O)cc2)NC(=O)[C@H](Cc2ccc(-c3ccccc3)cc2)NC(=O)[C@H](Cc2ccc(C(=O)O)cc2)NC(=O)[C@H](Cc2cccc(C(F)(F)F)c2)NC(=O)[C@H](CC(=O)O)NC(=O)[C@H](Cc2ccc(C(=O)O)cc2)NC(=O)[C@H](C(C)O)NC(=O)CSC[C@@H](C(=O)N[C@@H](CCN)C(=O)NCCCCCCCCCCC(=O)O)NC(=O)[C@H](CCC(=O)O)NC(=O)[C@H](C(C)C)NC(=O)[C@H](CC2CCCCC2)NC(=O)[C@H](CCN)NC1=O` (stereo partly drawn) [Example 2572] ({CH2CO}-[Thr(3ξ)][Phe(4-COOH)]D[Phe(3-CF3)][Phe(4-COOH)][Bip][Phe(4-COOH)][NMeA][dL][Dab][Cha]VEC[Dab][Aun]-OH; thioether N-14) was 11.5 nM.
`CC(C)C[C@H]1NC(=O)[C@H](C)N(C)C(=O)[C@H](Cc2ccc(C(=O)O)cc2)NC(=O)[C@H](Cc2ccc(-c3ccccc3)cc2)NC(=O)[C@H](Cc2ccc(C(=O)O)cc2)NC(=O)[C@H](Cc2cccc(C(F)(F)F)c2)NC(=O)[C@H](CC(=O)O)NC(=O)[C@H](Cc2ccc(C(=O)O)cc2)NC(=O)[C@H](C(C)O)NC(=O)CSC[C@@H](C(=O)N[C@@H](CCN)C(=O)NCCCCCCCCCCC(=O)O)NC(=O)[C@H](C(C)O)NC(=O)[C@H](C(C)(C)O)NC(=O)[C@H](CC2CCCCC2)NC(=O)[C@H](CCN)NC1=O` (stereo partly drawn) [Example 2573] ({CH2CO}-[Thr(3ξ)][Phe(4-COOH)]D[Phe(3-CF3)][Phe(4-COOH)][Bip][Phe(4-COOH)][NMeA][dL][Dab][Cha][Val(3-OH)][Thr(3ξ)]C[Dab][Aun]-OH; thioether N-14): the concentration for half-maximal inhibition (IC50) amounted to 9.7 nM.
Regarding `CC(C)C[C@H]1NC(=O)[C@H](C)N(C)C(=O)[C@H](Cc2ccc(OCC(=O)O)cc2)NC(=O)[C@H](Cc2ccc(-c3ccccc3)cc2)NC(=O)[C@H](Cc2ccc(C(=O)O)cc2)NC(=O)[C@H](Cc2cccc(C(F)(F)F)c2)NC(=O)[C@H](CC(=O)O)NC(=O)[C@H](Cc2ccc(OCC(=O)O)cc2)NC(=O)[C@H](C(C)O)NC(=O)CSC[C@@H](C(=O)N[C@@H](CCN)C(=O)NCCCCCCCCCCC(=O)O)NC(=O)[C@H](CCC(=O)O)NC(=O)[C@H](C(C)C)NC(=O)[C@H](CC2CCCCC2)NC(=O)[C@H](CCN)NC1=O` (stereo partly drawn) [Example 2574] ({CH2CO}-[Thr(3ξ)]Y(Carboxymethyl)D[Phe(3-CF3)][Phe(4-COOH)][Bip]Y(Carboxymethyl)[NMeA][dL][Dab][Cha]VEC[Dab][Aun]-OH; thioether N-14), the IC50 was 4.4 nM.
